This is an account of results in patent US20250235543A1, “MODIFIED PROTEINS AND PROTEIN DEGRADERS” (Cullgen (Shanghai), Inc., priority 2021, published 2025).

SMILES strings stand for the structures. Like-named read-outs stand apart in the source and are kept apart here. A value given as a limit tells only on which side of the number the result lay.

In assay [1] the target is T1, CDK4 (Homo sapiens, UniProt P11802).
T1 construct: endogenous in cells; host or cells: Calu-1
Description: CDK4 percentage degradation in Calu-1 cells (immunoblotting). The assay is classed as cell-based. Conditions: read-out: CDK4 Degradation (200 nM). The method in brief: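 CDK4 degradation was measured by immunoblotting. Cells were washed in cold PBS and lysed in RIPA buffer with inhibitors for 30 min at 4° C., then spun at 13,000 rpm to clear. After BCA protein determination, lysates were heated at 99° C. for 5 min in Laemmli buffer, resolved on SDS-PAGE, imaged on a ChemiDoc MP with ECL substrate, and band intensities quantified.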
In general terms: A western blot detects proteins with antibodies after separation by electrophoresis.

Assay [2] has as its system cyclin D1. Description: Cyclin D1 percentage degradation in Calu-1 cells (immunoblotting). The following applies: 200 nM, 16 hours. The assay is classed as cell-based. The method in brief:
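Cyclin D1 degradation was assessed by western blot. Clarified lysates, obtained by RIPA lysis with inhibitors and centrifugation at 13,000 rpm, were normalized by BCA protein assay and separated by SDS-PAGE. Bands were detected with Western ECL Substrate on a Bio-Rad ChemiDoc MP Imaging system and quantified in Image Lab software to derive percentage degradation.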

T1 sequence (P11802 2-303 limits assumed): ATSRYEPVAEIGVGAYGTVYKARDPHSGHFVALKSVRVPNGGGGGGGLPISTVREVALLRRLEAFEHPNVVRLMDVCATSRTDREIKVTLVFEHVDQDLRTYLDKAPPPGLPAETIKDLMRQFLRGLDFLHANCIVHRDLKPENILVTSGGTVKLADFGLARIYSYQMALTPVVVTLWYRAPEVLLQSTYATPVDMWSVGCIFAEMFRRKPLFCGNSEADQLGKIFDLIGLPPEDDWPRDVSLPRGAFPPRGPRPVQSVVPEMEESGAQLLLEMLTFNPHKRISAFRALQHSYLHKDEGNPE
T1 sequence (P24385 whole entry partner): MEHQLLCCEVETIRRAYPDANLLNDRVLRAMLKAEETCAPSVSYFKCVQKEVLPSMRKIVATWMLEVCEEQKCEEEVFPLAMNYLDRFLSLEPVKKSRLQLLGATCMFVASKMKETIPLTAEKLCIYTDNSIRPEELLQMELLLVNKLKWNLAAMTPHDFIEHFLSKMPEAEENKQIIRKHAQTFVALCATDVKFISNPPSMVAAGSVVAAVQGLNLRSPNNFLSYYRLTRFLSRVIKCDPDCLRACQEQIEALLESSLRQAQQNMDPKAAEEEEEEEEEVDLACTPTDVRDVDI
T1 sequence (Q16531 2-1140 limits assumed, further chain): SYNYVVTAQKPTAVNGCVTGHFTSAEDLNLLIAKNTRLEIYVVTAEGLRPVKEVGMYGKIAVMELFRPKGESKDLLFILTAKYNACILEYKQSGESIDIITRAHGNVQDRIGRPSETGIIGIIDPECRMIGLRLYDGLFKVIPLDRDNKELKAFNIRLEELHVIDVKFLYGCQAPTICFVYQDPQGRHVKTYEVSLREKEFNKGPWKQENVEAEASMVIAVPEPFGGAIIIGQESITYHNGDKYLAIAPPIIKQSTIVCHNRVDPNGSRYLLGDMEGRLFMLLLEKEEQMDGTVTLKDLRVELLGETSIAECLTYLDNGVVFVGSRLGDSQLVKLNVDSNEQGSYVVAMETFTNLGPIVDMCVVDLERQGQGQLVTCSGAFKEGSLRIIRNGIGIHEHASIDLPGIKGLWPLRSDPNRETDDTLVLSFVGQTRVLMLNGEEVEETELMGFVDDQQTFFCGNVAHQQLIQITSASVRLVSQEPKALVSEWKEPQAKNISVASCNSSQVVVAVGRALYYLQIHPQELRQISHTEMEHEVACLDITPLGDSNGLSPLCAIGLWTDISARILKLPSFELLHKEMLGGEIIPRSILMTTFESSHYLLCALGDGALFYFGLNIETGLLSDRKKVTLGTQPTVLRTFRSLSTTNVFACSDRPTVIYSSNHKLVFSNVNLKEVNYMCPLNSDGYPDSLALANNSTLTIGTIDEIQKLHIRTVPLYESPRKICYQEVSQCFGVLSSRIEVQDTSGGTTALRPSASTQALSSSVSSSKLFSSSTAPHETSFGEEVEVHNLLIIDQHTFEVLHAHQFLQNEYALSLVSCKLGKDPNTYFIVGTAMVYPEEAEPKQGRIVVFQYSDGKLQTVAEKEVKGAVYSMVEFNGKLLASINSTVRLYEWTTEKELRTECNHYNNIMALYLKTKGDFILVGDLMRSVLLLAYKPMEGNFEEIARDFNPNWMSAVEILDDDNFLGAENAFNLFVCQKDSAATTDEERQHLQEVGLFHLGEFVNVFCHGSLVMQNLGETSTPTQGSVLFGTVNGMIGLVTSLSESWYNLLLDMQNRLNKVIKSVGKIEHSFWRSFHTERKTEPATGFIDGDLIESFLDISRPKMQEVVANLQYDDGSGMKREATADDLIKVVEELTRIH

In the case of `CC(=O)c1c(C)c2cnc(Nc3ccc(N4CCN(CC(=O)NCCOCCOCCC(=O)Nc5ccc(N(C)C)cc5C(=O)Nc5nc(C)c(C)s5)CC4)cn3)nc2n(C2CCCC2)c1=O` [CPD-151, 2-(3-(2-(2-(2-(4-(6-((6-Acetyl-8-cyclopentyl-5-methyl-7-oxo-7,8-dihydropyrido[2,3-d]pyrimidin-2-yl)amino)pyridin-3-yl)piperazin-1-yl)acetamido)ethoxy)ethoxy)propanamido)-5-(dimethylamino)-N-(4,5-dimethylthiazol-2-yl)benzamide], the inhibition at 0.2 µM in assay [1] (Calu-1 cells, 200 nM, 16 hours) is 50 to 80%. In addition, the “CyclinD1 Degradation (200 nM)” value in assay [2] is “C (protein percentage degradation <50%, and >=30%)”.
On to `CC(=O)c1c(C)c2cnc(Nc3ccc(N4CCN(CC(=O)NCCOCCOCCC(=O)Nc5ccc(F)cc5C(=O)Nc5nc(C)c(C)s5)CC4)cn3)nc2n(C2CCCC2)c1=O` [CPD-152, 2-(3-(2-(2-(2-(4-(6-((6-Acetyl-8-cyclopentyl-5-methyl-7-oxo-7,8-dihydropyrido[2,3-d]pyrimidin-2-yl)amino)pyridin-3-yl)piperazin-1-yl)acetamido)ethoxy)ethoxy)propanamido)-N-(4,5-dimethylthiazol-2-yl)-5-fluorobenzamide], for which the inhibition at 0.2 µM in assay [1] (Calu-1 cells, 200 nM, 16 hours) was in the range of 50 to 80%. Moreover, the “CyclinD1 Degradation (200 nM)” value in assay [2] is given as “A (protein percentage degradation >=80%)”.
For the molecule `CC(=O)c1c(C)c2cnc(Nc3ccc(N4CCN(C(=O)CCC(=O)Nc5ccccc5C(=O)Nc5nc(C)c(C)s5)CC4)cn3)nc2n(C2CCCC2)c1=O` [CPD-153, 2-(4-(4-(6-((6-Acetyl-8-cyclopentyl-5-methyl-7-oxo-7,8-dihydropyrido[2,3-d]pyrimidin-2-yl)amino)pyridin-3-yl)piperazin-1-yl)-4-oxobutanamido)-N-(4,5-dimethylthiazol-2-yl)benzamide], the inhibition at 0.2 µM in assay [1] (Calu-1, 16 h) was less than 30%. In assay [2], the “CyclinD1 Degradation (200 nM)” value is reported as “D (protein percentage degradation <30%)”.
Take `CC(=O)c1c(C)c2cnc(Nc3ccc(N4CCN(CC(=O)NCCOCCOCCC(=O)Nc5ccccc5CNc5nc(C)c(C)s5)CC4)cn3)nc2n(C2CCCC2)c1=O` [CPD-154, 3-(2-(2-(2-(4-(6-((6-Acetyl-8-cyclopentyl-5-methyl-7-oxo-7,8-dihydropyrido[2,3-d]pyrimidin-2-yl)amino)pyridin-3-yl)piperazin-1-yl)acetamido)ethoxy)ethoxy)-N-(2-(((4,5-dimethylthiazol-2-yl)amino)methyl)phenyl)propanamide]: the inhibition at 0.2 µM in assay [1] (Calu-1 cells, 200 nM, 16 hours) is less than 30%. Further, the “CyclinD1 Degradation (200 nM)” value in assay [2] was “D (protein percentage degradation <30%)”.
For `CC(=O)c1c(C)c2cnc(Nc3ccc(N4CCN(CC(=O)NCCOCCOCCC(=O)Nc5cc(N(C)C)ccc5C(=O)Nc5nc(C)c(C)s5)CC4)cn3)nc2n(C2CCCC2)c1=O` [CPD-155, 2-(3-(2-(2-(2-(4-(6-((6-Acetyl-8-cyclopentyl-5-methyl-7-oxo-7,8-dihydropyrido[2,3-d]pyrimidin-2-yl)amino)pyridin-3-yl)piperazin-1-yl)acetamido)ethoxy)ethoxy)propanamido)-4-(dimethylamino)-N-(4,5-dimethylthiazol-2-yl)benzamide] the same measures were 50 to 80% and “A (protein percentage degradation >=80%)”.
Regarding `CC(=O)c1c(C)c2cnc(Nc3ccc(N4CCN(C(=O)CCCCC(=O)Nc5ccccc5C(=O)Nc5nc(C)c(C)s5)CC4)cn3)nc2n(C2CCCC2)c1=O` [CPD-156, 2-(6-(4-(6-((6-Acetyl-8-cyclopentyl-5-methyl-7-oxo-7,8-dihydropyrido[2,3-d]pyrimidin-2-yl)amino)pyridin-3-yl)piperazin-1-yl)-6-oxohexanamido)-N-(4,5-dimethylthiazol-2-yl)benzamide], in assay [1] (Calu-1, 16 h), the inhibition at 0.2 µM was less than 30%. In addition, the “CyclinD1 Degradation (200 nM)” value in assay [2] is given as “D (protein percentage degradation <30%)”.
For the molecule `CC(=O)c1c(C)c2cnc(Nc3ccc(N4CCN(C(=O)CCCCCC(=O)Nc5ccccc5C(=O)Nc5nc(C)c(C)s5)CC4)cn3)nc2n(C2CCCC2)c1=O` [CPD-157, 2-(7-(4-(6-((6-Acetyl-8-cyclopentyl-5-methyl-7-oxo-7,8-dihydropyrido[2,3-d]pyrimidin-2-yl)amino)pyridin-3-yl)piperazin-1-yl)-7-oxoheptanamido)-N-(4,5-dimethylthiazol-2-yl)benzamide], the inhibition at 0.2 µM in assay [1] (Calu-1, 16 h) was less than 30%. The “CyclinD1 Degradation (200 nM)” value in assay [2] was “D (protein percentage degradation <30%)”.
On the same counts, the results for `CC(=O)c1c(C)c2cnc(Nc3ccc(N4CCN(C(=O)CC(=O)Nc5ccccc5C(=O)Nc5nc(C)c(C)s5)CC4)cn3)nc2n(C2CCCC2)c1=O` [CPD-158, 2-(3-(4-(6-((6-Acetyl-8-cyclopentyl-5-methyl-7-oxo-7,8-dihydropyrido[2,3-d]pyrimidin-2-yl)amino)pyridin-3-yl)piperazin-1-yl)-3-oxopropanamido)-N-(4,5-dimethylthiazol-2-yl)benzamide] are less than 30% and “D (protein percentage degradation <30%)”.
For the molecule `CC(=O)c1c(C)c2cnc(Nc3ccc(N4CCN(C(=O)CCCC(=O)Nc5ccccc5C(=O)Nc5nc(C)c(C)s5)CC4)cn3)nc2n(C2CCCC2)c1=O` [CPD-159, 2-(5-(4-(6-((6-Acetyl-8-cyclopentyl-5-methyl-7-oxo-7,8-dihydropyrido[2,3-d]pyrimidin-2-yl)amino)pyridin-3-yl)piperazin-1-yl)-5-oxopentanamido)-N-(4,5-dimethylthiazol-2-yl)benzamide], the inhibition at 0.2 µM in assay [1] (Calu-1, 16 h) was 30 to 50%. Besides, the “CyclinD1 Degradation (200 nM)” value in assay [2] is given as “D (protein percentage degradation <30%)”.
Consider `CC(=O)c1c(C)c2cnc(Nc3ccc(N4CCN(C(=O)CCCCCCCC(=O)Nc5ccccc5C(=O)Nc5nc(C)c(C)s5)CC4)cn3)nc2n(C2CCCC2)c1=O` [CPD-160, 2-(9-(4-(6-((6-Acetyl-8-cyclopentyl-5-methyl-7-oxo-7,8-dihydropyrido[2,3-d]pyrimidin-2-yl)amino)pyridin-3-yl)piperazin-1-yl)-9-oxononanamido)-N-(4,5-dimethylthiazol-2-yl)benzamide], for which, in assay [1] (Calu-1, 16 h), the inhibition at 0.2 µM lay within 50 to 80%. The “CyclinD1 Degradation (200 nM)” value in assay [2] was “C (protein percentage degradation <50%, and >=30%)”.
As for `CC(=O)c1c(C)c2cnc(Nc3ccc(N4CCN(C(=O)CCCCCCC(=O)Nc5ccccc5C(=O)Nc5nc(C)c(C)s5)CC4)cn3)nc2n(C2CCCC2)c1=O` [CPD-161, 2-(8-(4-(6-((6-Acetyl-8-cyclopentyl-5-methyl-7-oxo-7,8-dihydropyrido[2,3-d]pyrimidin-2-yl)amino)pyridin-3-yl)piperazin-1-yl)-8-oxooctanamido)-N-(4,5-dimethylthiazol-2-yl)benzamide], in assay [1] (Calu-1, 16 h), the inhibition at 0.2 µM was less than 30%. Besides, in assay [2], the “CyclinD1 Degradation (200 nM)” value is “D (protein percentage degradation <30%)”.
As for `CC(=O)c1c(C)c2cnc(Nc3ccc(N4CCN(C(=O)CCCCCCCCC(=O)Nc5ccccc5C(=O)Nc5nc(C)c(C)s5)CC4)cn3)nc2n(C2CCCC2)c1=O` [CPD-162, 2-(10-(4-(6-((6-Acetyl-8-cyclopentyl-5-methyl-7-oxo-7,8-dihydropyrido[2,3-d]pyrimidin-2-yl)amino)pyridin-3-yl)piperazin-1-yl)-10-oxodecanamido)-N-(4,5-dimethylthiazol-2-yl)benzamide], the inhibition at 0.2 µM in assay [1] (Calu-1, 16 h) was less than 30%. Also, the “CyclinD1 Degradation (200 nM)” value in assay [2] is “C (protein percentage degradation <50%, and >=30%)”.
With `CC(=O)c1c(C)c2cnc(Nc3ccc(N4CCN(C(=O)CCOCCOCCOCCOCCOCCC(=O)Nc5ccccc5C(=O)Nc5nc(C)c(C)s5)CC4)cn3)nc2n(C2CCCC2)c1=O` [CPD-163, 19-(4-(6-((6-Acetyl-8-cyclopentyl-5-methyl-7-oxo-7,8-dihydropyrido[2,3-d]pyrimidin-2-yl)amino)pyridin-3-yl)piperazin-1-yl)-N-(2-((4,5-dimethylthiazol-2-yl)carbamoyl)phenyl)-19-oxo-4,7,10,13,16-pentaoxanonadecanamide], the inhibition at 0.2 µM in assay [1] (Calu-1, 16 h) fell in the range of 50 to 80%. In addition, the “CyclinD1 Degradation (200 nM)” value in assay [2] was “A (protein percentage degradation >=80%)”.
As to `CNc1ccc(C(=O)Nc2nc(C)c(C)s2)c(NC(=O)CCOCCOCCNC(=O)CN2CCN(c3ccc(Nc4ncc5c(C)c(C(C)=O)c(=O)n(C6CCCC6)c5n4)nc3)CC2)c1` [CPD-164, 2-(3-(2-(2-(2-(4-(6-((6-Acetyl-8-cyclopentyl-5-methyl-7-oxo-7,8-dihydropyrido[2,3-d]pyrimidin-2-yl)amino)pyridin-3-yl)piperazin-1-yl)acetamido)ethoxy)ethoxy)propanamido)-N-(4,5-dimethylthiazol-2-yl)-4-(methylamino)benzamide], the inhibition at 0.2 µM in assay [1] (Calu-1 cells, 200 nM, 16 hours) fell in the range of 50 to 80%. Further, the “CyclinD1 Degradation (200 nM)” value in assay [2] is “A (protein percentage degradation >=80%)”.
As for `CC(=O)c1c(C)c2cnc(Nc3ccc(N4CCN(C(=O)CCCNc5ccc(C)c(C(=O)Nc6nc(C)c(C)s6)c5)CC4)cn3)nc2n(C2CCCC2)c1=O` [CPD-165, 5-((4-(4-(6-((6-Acetyl-8-cyclopentyl-5-methyl-7-oxo-7,8-dihydropyrido[2,3-d]pyrimidin-2-yl)amino)pyridin-3-yl)piperazin-1-yl)-4-oxobutyl)amino)-N-(4,5-dimethylthiazol-2-yl)-2-methylbenzamide], the inhibition at 0.2 µM in assay [1] (Calu-1, 16 h) was less than 30%. Moreover, the “CyclinD1 Degradation (200 nM)” value in assay [2] is on record as “D (protein percentage degradation <30%)”.
In the case of `CC(=O)c1c(C)c2cnc(Nc3ccc(N4CCN(CC(=O)NCCOCCOCCOCCOCCOCCNc5ccc(CNc6nc(C)c(C)s6)c(C)c5)CC4)cn3)nc2n(C2CCCC2)c1=O` [CPD-166, 2-(4-(6-((6-Acetyl-8-cyclopentyl-5-methyl-7-oxo-7,8-dihydropyrido[2,3-d]pyrimidin-2-yl)amino)pyridin-3-yl)piperazin-1-yl)-N-(17-((4-(((4,5-dimethylthiazol-2-yl)amino)methyl)-3-methylphenyl)amino)-3,6,9,12,15-pentaoxaheptadecyl)acetamide], the inhibition at 0.2 µM in assay [1] (Calu-1 cells, 200 nM, 16 hours) lay in the range of 30 to 50%. The “CyclinD1 Degradation (200 nM)” value in assay [2] was “B (protein percentage degradation <80%, and >=50%)”.
